Source: PubChem BioAssay (NCI)
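Values below derive from 48-hour exposures of cells grown in 96-well plates, with endpoints linearly interpolated between the two concentrations bracketing the appropriate inhibition level. The concentration for full growth arrest is given as TGI.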

How the values were obtained:
Test in all cases: DTP human tumour cell line panel, 48 h
[1] = system: 786-0 renal
[2] = system: A549 NSCLC
[3] = system: ACHN renal
[4] = system: CCRF-CEM leukemia
[5] = system: DLD-1 colon
[6] = system: DMS 273 small cell lung
[7] = system: EKVX NSCLC
[8] = system: HCC-2998 colon
[9] = system: HCT-116 colon
[10] = system: HCT-15 colon
[11] = system: HL-60(TB) leukemia
[12] = system: HOP-18 NSCLC
[13] = system: HOP-62 NSCLC
[14] = system: HOP-92 NSCLC
[15] = system: HT29 colon
[16] = system: IGROV1 ovarian
[17] = system: KM20L2 colon
[18] = system: LOX IMVI melanoma
[19] = system: LXFL 529 NSCLC
[20] = system: M19-MEL melanoma
[21] = system: MALME-3M melanoma
[22] = system: MOLT-4 leukemia
[23] = system: NCI-H226 lung
[24] = system: NCI-H23 lung
[25] = system: NCI-H460 lung
[26] = system: OVCAR-3 ovarian
[27] = system: OVCAR-5 ovarian
[28] = system: OVCAR-8 ovarian
[29] = system: RPMI-8226 leukemia
[30] = system: RXF 393 renal
[31] = system: SF-268 CNS
[32] = system: SF-295 CNS
[33] = system: SF-539 CNS
[34] = system: SK-MEL-2 melanoma
[35] = system: SK-MEL-28 melanoma
[36] = system: SK-OV-3 ovarian
[37] = system: SN12C renal
[38] = system: SNB-19 CNS
[39] = system: SNB-75 CNS
[40] = system: SNB-78 CNS
[41] = system: SR leukemia
[42] = system: SW-620 colon
[43] = system: TK-10 renal
[44] = system: U251 CNS
[45] = system: UACC-257 melanoma
[46] = system: UACC-62 melanoma
[47] = system: UO-31 renal
[48] = system: XF 498 CNS
[49] = system: A498 renal
[50] = system: CAKI-1 renal
[51] = system: COLO 205 colon
[52] = system: K-562 leukemia
[53] = system: KM12 colon
[54] = system: M14 melanoma
[55] = system: NCI-H522 lung
[56] = system: OVCAR-4 ovarian
[57] = system: SK-MEL-5 melanoma
[58] = system: DMS 114 small cell lung

Measured: TGI

Cc1cc2c(C)n(Cc3ccccc3Cl)nc2c(C(=O)O)c1C
not listed: [49] | [50] | [51] | [52] | [53] | [54] | [55] | [56] | [57] | [58]
> 100 µM: all other assays above

N#C/C(=C/c1ccc2c(c1)OCO2)C(=O)c1ccccc1
not listed: [6] | [11] | [14] | [18] | [23] | [30] | [41] | [58]
> 100 µM: all other assays above

NC(=O)c1ccccc1[N+](=O)[O-]
not listed: [4] | [5] | [11] | [18] | [19] | [23] | [24] | [25] | [27] | [30] | [32] | [34] | [36] | [41] | [43] | [45] | [47] | [53] | [54] | [55] | [56]
> 100 µM: all other assays above
